Data reported in PubChem BioAssay AID2060602 (Molecular Pharmacology Branch, DTP, NCI, 2025).

Tested on: 648629-189-R-J1-PDC complex spheroids viability
Assay: Anticancer human tumor 648629-189-R-J1-PDC patient-derived bladder carcinoma cell line growth inhibition [CLK]
Conditions: for IC50: curve of first compound; for viability, T/C: stronger effect = lower value
Procedure, shortened: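 Multi-cell-type spheroids combined patient-derived tumor cells with HUVEC endothelial cells and human mesenchymal stem cells. Paired agents were dosed in half-log steps down from about clinical Cmax, or from 10 microM where Cmax was unknown.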

[1] = second compound 0.0316 µM, first compound 0.0316 µM
[2] = second compound 0.0316 µM, first compound 0.1 µM
[3] = second compound 0.0316 µM, first compound 0.316 µM
[4] = second compound 0.0316 µM, first compound 1 µM
[5] = second compound 0.0316 µM, first compound 3.16 µM
[6] = second compound 0.0316 µM, first compound 10 µM
[7] = second compound 0.1 µM, first compound 0.0316 µM
[8] = second compound 0.1 µM, first compound 0.1 µM
[9] = second compound 0.1 µM, first compound 0.316 µM
[10] = second compound 0.1 µM, first compound 1 µM
[11] = second compound 0.1 µM, first compound 3.16 µM
[12] = second compound 0.1 µM, first compound 10 µM
[13] = second compound 0.316 µM, first compound 0.0316 µM
[14] = second compound 0.316 µM, first compound 0.1 µM
[15] = second compound 0.316 µM, first compound 0.316 µM
[16] = second compound 0.316 µM, first compound 1 µM
[17] = second compound 0.316 µM, first compound 3.16 µM
[18] = second compound 0.316 µM, first compound 10 µM
[19] = second compound 1 µM, first compound 0.0316 µM
[20] = second compound 1 µM, first compound 0.1 µM
[21] = second compound 1 µM, first compound 0.316 µM
[22] = second compound 1 µM, first compound 1 µM
[23] = second compound 1 µM, first compound 3.16 µM
[24] = second compound 1 µM, first compound 10 µM
[25] = second compound 3.16 µM, first compound 0.0316 µM
[26] = second compound 3.16 µM, first compound 0.1 µM
[27] = second compound 3.16 µM, first compound 0.316 µM
[28] = second compound 3.16 µM, first compound 1 µM
[29] = second compound 3.16 µM, first compound 3.16 µM
[30] = second compound 3.16 µM, first compound 10 µM
[31] = second compound 10 µM, first compound 0.0316 µM
[32] = second compound 10 µM, first compound 0.1 µM
[33] = second compound 10 µM, first compound 0.316 µM
[34] = second compound 10 µM, first compound 1 µM
[35] = second compound 10 µM, first compound 3.16 µM
[36] = second compound 10 µM, first compound 10 µM
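Throughout, for viability, T/C: drug exposure lasted seven days before viability readout; 100% = DMSO vehicle control wells.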

C#Cc1c(F)ccc2cc(O)cc(-c3ncc4c(N5CC6CCC(C5)N6)nc(OCC56CCCN5CC(F)C6)nc4c3F)c12 (stereo not drawn) + CNC(=O)c1ccc(Nc2nc(OC3CCCC3)c3c(-c4ccc5nc(C)oc5c4)c[nH]c3n2)c(OC)c1
IC50 (second compound 0.0316 µM): > 10000 nM | IC50 (second compound 0.1 µM): 8430 nM | IC50 (second compound 0.316 µM): < 31.6 nM | IC50 (second compound 1 µM): < 31.6 nM | IC50 (second compound 3.16 µM): < 31.6 nM | IC50 (second compound 10 µM): < 31.6 nM | viability, T/C [1]: 120% | viability, T/C [2]: 88.4% | viability, T/C [3]: 108% | viability, T/C [4]: 105% | viability, T/C [5]: 100% | viability, T/C [6]: 91.4% | viability, T/C [7]: 83.2% | viability, T/C [8]: 76.9% | viability, T/C [9]: 84.1% | viability, T/C [10]: 79.4% | viability, T/C [11]: 61.8% | viability, T/C [12]: 48% | viability, T/C [13]: 28.1% | viability, T/C [14]: 25.4% | viability, T/C [15]: 25.1% | viability, T/C [16]: 23% | viability, T/C [17]: 19.3% | viability, T/C [18]: 22% | viability, T/C [19]: 18.7% | viability, T/C [20]: 20.2% | viability, T/C [21]: 15.5% | viability, T/C [22]: 18.6% | viability, T/C [23]: 18.2% | viability, T/C [24]: 19.4% | viability, T/C [25]: 17.2% | viability, T/C [26]: 17.6% | viability, T/C [27]: 15.4% | viability, T/C [28]: 16.9% | viability, T/C [29]: 17.6% | viability, T/C [30]: 17.9% | viability, T/C [31]: 20.1% | viability, T/C [32]: 18.5% | viability, T/C [33]: 18% | viability, T/C [34]: 17% | viability, T/C [35]: 21.5% | viability, T/C [36]: 16.6%

C=C(F)C(=O)N1CCN(c2nc(OCC3CCCN3C)nc3c2CCN(c2cccc4cccc(Cl)c24)C3)CC1CC#N (stereo not drawn) + CNC(=O)c1ccc(Nc2nc(OC3CCCC3)c3c(-c4ccc5nc(C)oc5c4)c[nH]c3n2)c(OC)c1
IC50 (second compound 0.0316 µM): 5950 nM | IC50 (second compound 0.1 µM): 3810 nM | IC50 (second compound 0.316 µM): < 31.6 nM | IC50 (second compound 1 µM): < 31.6 nM | IC50 (second compound 3.16 µM): < 31.6 nM | IC50 (second compound 10 µM): < 31.6 nM | viability, T/C [1]: 110% | viability, T/C [2]: 107% | viability, T/C [3]: 120% | viability, T/C [4]: 106% | viability, T/C [5]: 111% | viability, T/C [6]: 0.23% | viability, T/C [7]: 70.8% | viability, T/C [8]: 71.7% | viability, T/C [9]: 66.6% | viability, T/C [10]: 65% | viability, T/C [11]: 60.1% | viability, T/C [12]: 0.52% | viability, T/C [13]: 26% | viability, T/C [14]: 27.9% | viability, T/C [15]: 29% | viability, T/C [16]: 22.4% | viability, T/C [17]: 24.4% | viability, T/C [18]: 0.16% | viability, T/C [19]: 18.6% | viability, T/C [20]: 17.9% | viability, T/C [21]: 23% | viability, T/C [22]: 20.2% | viability, T/C [23]: 20.8% | viability, T/C [24]: 0.14% | viability, T/C [25]: 18.8% | viability, T/C [26]: 19.3% | viability, T/C [27]: 19.9% | viability, T/C [28]: 19.4% | viability, T/C [29]: 19.7% | viability, T/C [30]: 0.19% | viability, T/C [31]: 21.2% | viability, T/C [32]: 18.6% | viability, T/C [33]: 18.2% | viability, T/C [34]: 19.8% | viability, T/C [35]: 19.1% | viability, T/C [36]: 0.26%

C=CC(=O)N1CCN(c2nc(=O)n(-c3c(C)ccnc3C(C)C)c3nc(-c4c(O)cccc4F)c(F)cc23)C(C)C1 (stereo not drawn) + CNC(=O)c1ccc(Nc2nc(OC3CCCC3)c3c(-c4ccc5nc(C)oc5c4)c[nH]c3n2)c(OC)c1
IC50 (second compound 0.0316 µM): > 10000 nM | IC50 (second compound 0.1 µM): > 10000 nM | IC50 (second compound 0.316 µM): < 31.6 nM | IC50 (second compound 1 µM): < 31.6 nM | IC50 (second compound 3.16 µM): < 31.6 nM | IC50 (second compound 10 µM): < 31.6 nM | viability, T/C [1]: 120% | viability, T/C [2]: 110% | viability, T/C [3]: 115% | viability, T/C [4]: 108% | viability, T/C [5]: 115% | viability, T/C [6]: 110% | viability, T/C [7]: 91.9% | viability, T/C [8]: 94.6% | viability, T/C [9]: 90.1% | viability, T/C [10]: 87.9% | viability, T/C [11]: 93.5% | viability, T/C [12]: 82.5% | viability, T/C [13]: 27% | viability, T/C [14]: 24.8% | viability, T/C [15]: 29.8% | viability, T/C [16]: 39.2% | viability, T/C [17]: 42.6% | viability, T/C [18]: 66.2% | viability, T/C [19]: 23.5% | viability, T/C [20]: 26.6% | viability, T/C [21]: 23.5% | viability, T/C [22]: 24.2% | viability, T/C [23]: 26.9% | viability, T/C [24]: 46.2% | viability, T/C [25]: 17.9% | viability, T/C [26]: 22.7% | viability, T/C [27]: 20.4% | viability, T/C [28]: 22.6% | viability, T/C [29]: 27.7% | viability, T/C [30]: 31.8% | viability, T/C [31]: 19.7% | viability, T/C [32]: 20.5% | viability, T/C [33]: 20.3% | viability, T/C [34]: 27.3% | viability, T/C [35]: 33.2% | viability, T/C [36]: 28.5%

CC(CO)NC(=O)c1cc(-c2ccc(Cl)cc2)nn(-c2cnn(C)c2)c1=O (stereo not drawn) + CNC(=O)c1ccc(Nc2nc(OC3CCCC3)c3c(-c4ccc5nc(C)oc5c4)c[nH]c3n2)c(OC)c1
IC50 (second compound 0.0316 µM): > 10000 nM | IC50 (second compound 0.1 µM): > 10000 nM | IC50 (second compound 0.316 µM): < 31.6 nM | IC50 (second compound 1 µM): < 31.6 nM | IC50 (second compound 3.16 µM): < 31.6 nM | IC50 (second compound 10 µM): < 31.6 nM | viability, T/C [1]: 99.5% | viability, T/C [2]: 92.6% | viability, T/C [3]: 117% | viability, T/C [4]: 104% | viability, T/C [5]: 88.9% | viability, T/C [6]: 88.5% | viability, T/C [7]: 90.9% | viability, T/C [8]: 87.7% | viability, T/C [9]: 90.3% | viability, T/C [10]: 76.9% | viability, T/C [11]: 90.9% | viability, T/C [12]: 82.8% | viability, T/C [13]: 31.1% | viability, T/C [14]: 28.2% | viability, T/C [15]: 29.3% | viability, T/C [16]: 30.2% | viability, T/C [17]: 26.8% | viability, T/C [18]: 21.7% | viability, T/C [19]: 16.6% | viability, T/C [20]: 19.7% | viability, T/C [21]: 18.5% | viability, T/C [22]: 18.8% | viability, T/C [23]: 22.5% | viability, T/C [24]: 18.8% | viability, T/C [25]: 18% | viability, T/C [26]: 21.2% | viability, T/C [27]: 16.1% | viability, T/C [28]: 23% | viability, T/C [29]: 20.8% | viability, T/C [30]: 17.9% | viability, T/C [31]: 18.7% | viability, T/C [32]: 20.2% | viability, T/C [33]: 19.5% | viability, T/C [34]: 21.6% | viability, T/C [35]: 19.2% | viability, T/C [36]: 19.3%
